In US8038984B2, “Membrane-permeant peptide complexes for treatment of sepsis” (Washington University, priority 1998, dated 2011):
Numbered stars: 1 amine (or outer) side, 2 acyl side, 3 side chain; on linkers, the order of the positions; unused ones are H or OH. Square brackets hold non-standard residues; d marks the D form. εLys = N[C@@H](CCCCN[*:1])C(=O)[*:2]; dOrn = NCCC[C@@H](N)C(=O)O; βAla = NCCC(=O)O

Experiments:
human lymphocytes = assay: E. coli bacterial-induced lymphocyte apoptosis, staining for active caspase 3; assay type: cell-based
Procedure: Thymocytes and splenocytes were obtained from CLP and sham-treated mice ˜20 hours postoperatively. The APO-BRDU™ kit (Phoenix Flow Systems, San Diego, Calif.) was employed for flow cytometric quantitation of TUNEL. Antibodies to active caspase 3 (Cell Signaling—Catalog #9664) were used in the flow cytometry and/or TUNEL assay.
Lymphocytes were harvested from peripheral blood obtained from 6 healthy volunteers using a ficol gradient separation technique. Approximately 1×10^6 lymphocytes were plated in individual transwell containers. E. coli bacteria (strain ATCC 25922), that had been grown overnight in trypticase soy broth were added to a separate compartment of the transwell chamber separated from direct contact with the lymphocytes by a 0.02 micron filter (25 μl of bacteria at 3×10^9 CFUs added to 1 ml volume.

[1] = test system: human KB-3-1 and KB-8-5 epidermoid carcinoma cells; assay: Fluorescence (confocal) microscopy of subcellular distribution; assay type: cell-based; conditions: 0.5 μM extracellular concentration, KB-3-1 and KB-8-5 cells
Procedure: Subsequently, cells on covers lips were fixed in 4% (v/v) formaldehyde in PBS at room temperature and then rinsed 3 times with PBS (1 min each). Cells were then stained and mounted with anti-fading mounting medium containing propidium iodide (1 μg/ml) following the recommended procedures of the manufacturer (Vectashield). The distribution of the fluorescence was analyzed on a Zeiss confocal laser fluorescence microscope equipped with a mercury lamp, oil immersion objectives and a CCD interfaced to a PC. Propidium iodide distribution was interrogated using 340-380 nm excitation and 430 nm emission, while fluorescein distribution was interrogated using 450-490 nm excitation and 520 nm emission.
To localize the subcellular distribution of the Tat-peptide conjugate, uptake experiments were performed with the fluorescein derivatized conjugate using human KB-3-1 and KB-8-5 epidermoid carcinoma cells.

[2] = test system: human Jurkat leukemia cells; assay: Washout of Tc-99m-Tat-peptide complexes from preloaded Jurkat cells; assay type: cell-based; conditions: residual activity remaining within the cell 30 minutes after a wash in isotope-free buffer
Procedure: (§1) Characterization of accumulation of Tc-99m-peptide complex was also performed for nonadherent cell lines such as human Jurkat leukemia cells with minor modifications of methods described in the literature (Bosch et al., Leukemia, 11: 1131-1137, 1997). Transport experiments were performed in siliconized microfuge tubes and initiated by addition of 732.5 μl of cells at 2-3×10^6 cells/ml to 10 μl of buffer containing Tc-99m-peptide complex and 7.5 μl of vehicle alone or of any added drug in vehicle at 100-fold the desired concentration. The tubes were incubated in a 37° C. water bath with occasional mixing. The reaction was terminated by centrifuging 250 μl aliquots from the reaction for 10 seconds through 800 μl of a 75:25 mixture of silicon oil, density=1.050 (Aldrich) and mineral oil, density=0.875 (Acros). An aliquot of the aqueous phase was obtained to normalize extracellular concentration of the complex to cell-associated activity, then the oil and aqueous phases were aspirated and the cell pellet extracted in 0.5 ml of 1% SDS, 10 mM sodium borate. For tracer washout experiments, cells were first incubated to plateau uptake (10 min) in loading buffer (37° C.), collected by rapid centrifugation and the pellet resuspended in 50 ml MEBSS (4° C.) to clear extracellular tracer. Following another rapid spin, the cell pellet was resuspended in isotope-free MEBSS (37° C.) and the experiment terminated as above after various times in warm washout buffer. Radioactivity of the cell pellet, buffers and stocks were determined on a gamma counter (Cobra II, 130-165 keV window) and cell protein was determined by the BCA assay (Pierce). Transport data are reported as fmol Tc-complex (mg protein)^−1 (nM0)^− as previously described, with (nM0)^−1 representing total concentration of peptide conjugate in the extracellular buffer (Piwnica-Worms et al., Circulation, 82: 1826-1838, 1990).
(§2) Kinetic experiments of [^99mTc]D-Tat-peptide complexes were performed in Jurkat leukemia cells suspended in MEBSS with minor modification of the methods described in Example 6. Transport experiments were performed in siliconized microfuge tubes and initiated by addition of 732.5 μl of cells at 2-3×10^6 cells/ml to 10 μl of MEBSS containing [^99mTc]D-Tat-peptide complex and 7.5 μl of vehicle alone or of any added drug in vehicle at 100 fold the desired concentration. Unless stated otherwise, [^99mTc]D-Tat-peptide complex was added to MEBSS accompanied by a molar excess of unlabeled D-Tat-peptide as obtained directly from the labeling procedure. The final total peptide concentration was 7 nM to 8 μM (1-2 μCi/ml). The tube were incubated at 37° C. and the reaction terminated as previously described. For peptide washout experiments, cells were first incubated to plateau uptake (20 minutes) in MEBSS loading buffer at 37° C., collected by rapid centrifugation and the pellet resuspended in 50 ml of isotope-free MEBSS at 4° C. to clear extracellular tracer. Following another rapid spin, the cell pellet was resuspended in isotope-free MEBSS at 37° C. for various times and the reaction terminated as described previously. Protein assays and determination of gamma activity were as described in Example 6. Absolute concentration of total [Tc]Tat-peptide complex in solution was determined from the specific activity of Tc, based on equations of Mo/Tc generator equilibrium (Lamson et al., J. Nucl. Med., 16:639-641, 1975). Transport data are reported as pmol of peptidei (mg protein)^−1 (μM0)^−1, wherein peptidei represents total peptide conjugate within the cells and (nM0)^−1 represents concentration of total peptide conjugate in the extracellular buffer.

[3] = test system: human Jurkat leukemia cells; assay: Cell accumulation (uptake) of Tc-99m-Tat-peptide complexes in Jurkat cells; assay type: cell-based; conditions: Jurkat cells
Procedure: Control solution for cell uptake experiments was a modified Earle's balanced salt solution (MEBSS) containing (mM): 145 Na^+, 5.4 K^+, 1.2 Ca^2+, 0.8 Mg^2+, 152 Cl^−, 0.8 H2PO4^−, 0.8 SO4^2−, 5.6 dextrose, 4.0 HEPES, and 1% bovine calf serum (vol/vol), pH 7.4±0.05. A 130 mM K^+/20 mM Cl^− solution was made by equimolar substitution of potassium methanesulfonate for NaCl as described by Piwnica-Worms et al. (J. Gen. Physiol., 81:731-748, 1983).
as §1
as §2, with “Transport data are reported as pmol of peptidei (mg protein)^−1 (μM0)^−1, wherein peptidei represents total peptide conjugate within the cells and (nM0)^−1 represents concentration of total peptide conjugate in the extracellular buffer.” left out

caspase-3 = molecular target: T1, caspase-3 (Homo sapiens, UniProt P42574); assay: Cleavage of the caspase-3 cleavable linker in situ in C6-ceramide-treated Jurkat cells; assay type: cell-based; conditions: 5 μM C6-ceramide, 1 μM peptide, RP-HPLC at 440 nm of lysates
T1 construct: Human Jurkat leukemia cells express pro-caspase-3; endogenous in cells; host or cells: Jurkat (human T-cell leukemia)
T1 sequence (P42574 29-175 limits assumed): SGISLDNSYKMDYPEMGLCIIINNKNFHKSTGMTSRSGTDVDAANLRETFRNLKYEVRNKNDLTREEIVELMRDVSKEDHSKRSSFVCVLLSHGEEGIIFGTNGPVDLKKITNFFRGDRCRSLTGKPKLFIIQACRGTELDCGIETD
T1 sequence (P42574 176-277 limits assumed): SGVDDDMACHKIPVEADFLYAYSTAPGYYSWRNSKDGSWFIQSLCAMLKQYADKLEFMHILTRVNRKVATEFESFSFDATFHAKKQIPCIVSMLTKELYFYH
Procedure: Human Jurkat leukemia cells express pro-caspase-3. Apoptosis can be induced by pre-incubation of Jurkat cells for 5 hr in medium containing C6-ceramide, a permeant phospholipid known to activate the cell death program (Herr, et al., EMBO J 16:6200-6208, 1997; Jayadev S, et al., J. Biol Chem 270:2047-2052, 1995). After pre-incubation of Jurkat cells in MEBSS buffer at […] in the absence (untreated) or presence of 5 μM C6-ceramide, 1 μM of the caspase-3 cleavable fluorescein tagged Tat peptide of Example 8 was added to the MEBSS buffer for 30 minutes. Untreated and apoptotic cells were then spun through oil (see Example 6) to clear extracellular spaces of Tat peptide, and the intact cells in the pellet were allowed to incubate for 5 minutes at 37° C. The oil was quickly suctioned off, the reaction terminated with cell lysis buffer (1% SDS, 10 mM sodium borate), and the cell extract centrifuged (500×g for 10 min) to pellet debris and precipitates. The supernatant was removed, lyophilized overnight, and resuspended in 500 μl of water. […] In C6-ceramide-treated cells, however, no such species was observable (FIG. 7).
The above experiment was repeated using the Tc-99m-Tat peptide of Example 8. […] Tc99-m and protein content were determined using published methods (Bosch et al., Leukemia 11:1131-37, 1997).

[4] = molecular target: T2, recombinant human active caspase-3 (Homo sapiens, UniProt P42574); assay: Cleavage of the caspase-3 cleavable linker in vitro; assay type: biochemical; conditions: 6 hrs incubation with active caspase-3, TLC
T2 construct: recombinant human active caspase-3
T2 sequence (P42574 29-175 limits assumed): T1 sequence (P42574 29-175 limits assumed)
T2 sequence (P42574 176-277 limits assumed): T1 sequence (P42574 176-277 limits assumed)
Procedure: In small reaction vials, Tat peptide chelate as the fluorescein tagged conjugate of Example 8 was incubated with and without recombinant human active caspase-3 in commercially available reaction buffer (caspase buffer, Invitrogen). In vial 1 was peptide conjugate in buffer without caspase-3; in vial 2 was peptide conjugate with active caspase-3; and in vial 3 was stock peptide conjugate. After 6 hrs of incubation to assure completion of the reaction, the reaction mixtures were spotted at the origin of silica gel TLC plates, developed in 15% TFA, and analyzed under an UV lamp. […] This represents direct evidence for successful synthesis of a caspase-3-cleavable Tat peptide imaging conjugate.

## (d)-Ac-RKKRR-Orn-RRR-β-A-(l)-SNRELVVDFLSDKLSQKGDS-COOH (Ac-[dR][dK][dK][dR][dR][dOrn][dR][dR][dR][βAla]SNRELVVDFLSDKLSQKGDS-OH; SMILES CC(=O)N[C@H](CCCNC(=N)N)C(=O)N[C@H](CCCCN)C(=O)N[C@H](CCCCN)C(=O)N[C@H](CCCNC(=N)N)C(=O)N[C@H](CCCNC(=N)N)C(=O)N[C@H](CCCN)C(=O)N[C@H](CCCNC(=N)N)C(=O)N[C@H](CCCNC(=N)N)C(=O)N[C@H](CCCNC(=N)N)C(=O)NCCC(=O)N[C@@H](CO)C(=O)N[C@@H](CC(N)=O)C(=O)N[C@@H](CCCNC(=N)N)C(=O)N[C@@H](CCC(=O)O)C(=O)N[C@@H](CC(C)C)C(=O)N[C@H](C(=O)N[C@H](C(=O)N[C@@H](CC(=O)O)C(=O)N[C@@H](Cc1ccccc1)C(=O)N[C@@H](CC(C)C)C(=O)N[C@@H](CO)C(=O)N[C@@H](CC(=O)O)C(=O)N[C@@H](CCCCN)C(=O)N[C@@H](CC(C)C)C(=O)N[C@@H](CO)C(=O)N[C@@H](CCC(N)=O)C(=O)N[C@@H](CCCCN)C(=O)NCC(=O)N[C@@H](CC(=O)O)C(=O)N[C@@H](CO)C(=O)O)C(C)C)C(C)C) [TAT-BH4(D)2, reference compound]
Human lymphocytes; 1 μM, human lymphocytes, live E. coli ~5 hours
  bacterial-induced apoptosis: did not prevent apoptosis

## Bcl-xL: free unconjugated Bcl-xL, anti-apoptotic Bcl-2 family protein
Human lymphocytes; human lymphocytes treated with live E. coli for ~5 hours
  CD3 T cell apoptosis by staining for active caspase 3: a similar decrease was not seen

## acetyl-GRKKRRORRR-AHA-εKGC-amide-fluorescein-maleimide trifluoroacetate [Example 3]
[1]
  subcellular distribution: rapid cytoplasmic and nuclear accumulation
[2]
  30 min Washout: 24.32 pmol (mg protein)^−1 (μM0)^−1
[3]; [99mTc] complexes, 37° C., 20 min
  20 min Uptake: 42.74 pmol (mg protein)^−1 (μM0)^−1
[3]; uptake/washout ratio
  U/W Ratio: 1.8

## fluorescein tagged conjugate of Example 8: caspase-3 cleavable Tat peptide conjugate labeled at the C-terminal thiol of the peptide chelator with fluorescein maleimide (Ac-GRKKRRQRRRGDEVDG[εLys]GC(fluorescein maleimide)-NH2; not fully specified; printed as acetyl-GRKKRRQRRR-GDEVDG-εKGC-amide; also: conjugate)
caspase-3; listed as caspase-3 cleavable fluorescein tagged Tat peptide of Example 8
  cleavage in living cells upon activation of caspase-3: rapid cleavage
caspase-3; listed as fluorescein tagged Tat peptide
  cleavage in living cells upon activation of caspase-3: absence of the intact Tat peptide
[4]
  cleavage by caspase-3: cleavage of the Tat peptide conjugate at the D-G cleavage site
